“Also recorded” adds a separate entry of the source. Read-outs that look alike come from different tables or passages of the source. Where a SMILES comes first, the peptide text is derived from it. The star is where a group is joined. Cbz = O=C(OCc1ccccc1)*; CH2F = FC*
How the values were obtained:
UCHL3 = target: T1, UCHL3 (Homo sapiens, UniProt P15374); experiment: Fluorescence-based Ub-Rho deubiquitinase activity assay; type: biochemical; parameters: His (N); made in house; details: top concentration of 200 µM; Figure S1
T1 sequence (P15374 1-230): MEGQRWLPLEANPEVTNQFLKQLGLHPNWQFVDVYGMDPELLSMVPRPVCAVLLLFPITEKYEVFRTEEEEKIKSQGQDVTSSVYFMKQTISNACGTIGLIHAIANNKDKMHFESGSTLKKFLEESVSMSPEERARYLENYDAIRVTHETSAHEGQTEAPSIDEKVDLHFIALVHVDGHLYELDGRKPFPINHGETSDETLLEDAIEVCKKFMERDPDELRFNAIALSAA
Procedure: The in vitro inhibition of UCHL1 was determined by monitoring the cleavage of rhodamine 110 from substrate Rhodamine110-ubiquitin (Ub-Rho). […]. Thus, a 3-h preincubation period was selected for the structure-activity relationship (SAR) comparison of all analogs to ensure full reaction time and for consistent comparison of activity against UCHL1 within the scaffold. […]. The assay was performed in black 384-well plates (Catalog #12566624, Fisher, Waltham, MA, USA). DUB stock solutions were diluted in reaction buffer (50 mm Tris pH 7.6, 0.5 mm EDTA, 5 mm DTT, 0.1 % (w/v) BSA) to a concentration of 2.5 nM for UCHL1 or 0.025 nM for UCHL3. […] Plates were read immediately and fluorescence of cleaved Rhodamine 110 fluorophore was monitored at λex = 485 nm, λem = 535 nm continuously for 20 min on a Synergy Neo2 instrument (BioTek, Winooski, VT, USA) The raw data was loaded into GraphPad Prism 8 (GraphPad Software, San Diego, CA, USA; www.graphpad.com, accessed on 12 January 2021) and the slope of the linear portion of the fluorescence vs. time curves was calculation for each inhibitor concentration and % activity of the enzyme was determined compared to DMSO-treated controls. […] Errors are reported as the 95% confidence interval calculated from experiments collected in technical triplicate.

SW1271 cells [1] = experiment: SW1271 cell viability assay; type: cell-based; details: 100 µM, 24 h
Procedure: UCHL1 is a key promoter of cell invasion and metastasis in small cell lung cancer but not necessarily required for cell viability or proliferation. Thus, we chose to assess the efficacy of targeting UCHL1 using the SW1271 small cell lung cancer cell line. […] The Ub-ABP assay was used to confirm on target engagement of UCHL1 within these cells.
Luciferase-constructed cancer cells were seeded in 96-well plates at 10,000 cells/well with the compounds at the indicated concentrations. DMSO was used as vehicle control. Luminescence readings were acquired after adding 1% D-luciferin (GoldBio, St. Louis, MO, USA) after 24 h. Cell viability was determined by the ratio of luminescence reading compared to the one at 0 h, and normalized to vehicle control.

UCHL1 [2] = target: T2, UCHL1 (Homo sapiens, UniProt P09936); experiment: Fluorescence-based Ub-Rho deubiquitinase activity assay; type: biochemical; parameters: made in house; details: for IC50: 3 h of preincubation with UCHL1, technical triplicate, averages
T2 sequence (P09936 1-223): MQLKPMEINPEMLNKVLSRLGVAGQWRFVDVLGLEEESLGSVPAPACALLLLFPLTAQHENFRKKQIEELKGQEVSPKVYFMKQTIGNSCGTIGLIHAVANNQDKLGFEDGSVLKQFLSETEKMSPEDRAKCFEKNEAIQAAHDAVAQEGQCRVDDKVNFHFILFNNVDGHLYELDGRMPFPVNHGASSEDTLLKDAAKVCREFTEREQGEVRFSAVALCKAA
Procedure: Thus, a 3-h preincubation period was selected for the structure-activity relationship (SAR) comparison of all analogs to ensure full reaction time and for consistent comparison of activity against UCHL1 within the scaffold. […] A 10 mM stock solution was made for each inhibitor in DMSO, then a dilution of 600 µM in reaction buffer was made followed eight by 1:1 serial dilutions. […] These were allowed to incubate, while sealed, for the 3 h at room temperature. […] The % activity was plotted as a function of inhibitor concentration and the data was fitted with non-linear regression analysis to calculate the IC50 values. Errors are reported as the 95% confidence interval calculated from experiments collected in technical triplicate.

SW1271 cells [3] = experiment: Scratch wound healing cell migration assay; type: cell-based; details: 100 µM, 24 h
Procedure: The same experiments were performed on wild type SW1271 cells treated with fluoromethylketone analogs. Molecules 1 and 34 were first assessed for their effect on cell viability at 100 µM to determine if any observed reduction in cell viability may influence the migration assays (Figure 9E). […] Due to the slow reactive nature of the inhibitor and the modest potency the anti-migratory efficacy of these analogs may be improved with longer duration of treatment or increasing the frequency of treatment. Further studies are underway to elucidate the role UCHL1 plays in the migratory cellular pathways using both genetic depletion and inhibitor approaches.
Wild-type or shRNA treated UCHL1 knockdown SW1271 cells were seeded in 12-well plates at 1 million cells/well. The cells were cultured overnight to grow as a confluent single layer. The cross-style wounds were created using pipet tips to scratch on the single layer of cells. The compounds were prepared in full growth media at the desired concentrations and added after the wounds were created. DMSO was used as the vehicle control. Photos of the wounds were captured immediately after adding treatments at 0 h. Photos of the wounds were captured at 0 and 24 h. The areas of cross-style wounds were quantified using Image J 1.52a software. The migration rate (%) was defined as the percentage of area at each timepoint compared to the one at 0 h.

UCHL1 [4] = target: T2, UCHL1; experiment: Time-dependent inhibitor analysis (kinact/KI); type: biochemical; parameters: made in house
Procedure: Irreversible covalent inhibitors may be further characterized by determining the reversible binding constant (KI) as well as the rate of the covalent bond formation under saturating conditions (kinact). By determining the IC50 over the course of various timepoints, the pseudo first-order rate constant (kobs) could be calculated. […] The % activity of each inhibitor concentration was the plotted vs. time of pre-incubation and the slope of this plot is the pseudo first-order rate constant (kobs) for inhibition at each concentration. The kobs was plotted as a function of inhibitor concentration and then fit to the equation Y = kinactX/(KI + X) to calculate kinact, KI and kinact/KI as described by Resnick et al..

| SMILES | activity versus UCHL3 (UCHL3) | SW1271 cell viability (SW1271 cells [1]) | IC50 (UCHL1 [2]; IC50 (µM)) | migration of SW1271 cells compared to DMSO control (SW1271 cells [3]) | Ki (UCHL1 [4]) | IC50 (UCHL1 [2]; read-out: IC50) | fold more active than 1 versus UCHL1 (UCHL1 [2]; IC50 comparison, 3 h preincubation) | improvement of KI compared with 1 (UCHL1 [4]) | kinact (UCHL1 [4]) | kinact/KI (UCHL1 [4]) | Ki (UCHL1 [4]; reversible binding constant of covalent inhibition, read-out: KI) |
| --- | --- | --- | --- | --- | --- | --- | --- | --- | --- | --- | --- |
| COC(=O)CC[C@H](NC(=O)[C@H](C)NC(=O)[C@@H](NC(=O)OCc1ccccc1)C(C)C)C(=O)CF [Cpd 1, benzyloxycarbonyl-Val-Ala-Glu(γ-methoxy)-fluoromethylketone] (Cbz-Val-Ala-Glu(OMe)-CH2F) | no activity | no effect on the cell viability; also recorded: neither 1 nor 34 displayed cytotoxic effect | 24 µM | the same reduction of migratory ability was not observed | 60 µM |  |  |  |  |  |  |
| C#Cc1ccc(COC(=O)N[C@H](C(=O)N[C@@H](C)C(=O)N[C@@H](CCC(=O)OC)C(=O)CF)C(C)C)cc1 [Cpd 34] | no observable activity | no effect on the cell viability; also recorded: did not reduce SW1271 cell viability; also recorded: neither 1 nor 34 displayed cytotoxic effect; also recorded: does not exhibit any cellular toxicity |  | significantly reduced the ability of the cells to migrate; also recorded: anti-migratory properties |  | 7.7 µM | approximately 3 fold | greater than 3 fold | 0.0136 s⁻¹ | 810 M⁻¹ s⁻¹ | 16.8 µM |
